Assay results reported in article PMC9851200, “Multiparameter phenotypic screening for endogenous TFEB and TFE3 translocation identifies novel chemical series modulating lysosome function” (Autophagy, 2022).

What was measured:
Type in all cases: binding
[1] = biological target: T1, kinases (KINOMEscan panel) (Homo sapiens, UniProt O00444); details: kinase PLK4; NEW KINOMEscan
T1 sequence (O00444 1-970): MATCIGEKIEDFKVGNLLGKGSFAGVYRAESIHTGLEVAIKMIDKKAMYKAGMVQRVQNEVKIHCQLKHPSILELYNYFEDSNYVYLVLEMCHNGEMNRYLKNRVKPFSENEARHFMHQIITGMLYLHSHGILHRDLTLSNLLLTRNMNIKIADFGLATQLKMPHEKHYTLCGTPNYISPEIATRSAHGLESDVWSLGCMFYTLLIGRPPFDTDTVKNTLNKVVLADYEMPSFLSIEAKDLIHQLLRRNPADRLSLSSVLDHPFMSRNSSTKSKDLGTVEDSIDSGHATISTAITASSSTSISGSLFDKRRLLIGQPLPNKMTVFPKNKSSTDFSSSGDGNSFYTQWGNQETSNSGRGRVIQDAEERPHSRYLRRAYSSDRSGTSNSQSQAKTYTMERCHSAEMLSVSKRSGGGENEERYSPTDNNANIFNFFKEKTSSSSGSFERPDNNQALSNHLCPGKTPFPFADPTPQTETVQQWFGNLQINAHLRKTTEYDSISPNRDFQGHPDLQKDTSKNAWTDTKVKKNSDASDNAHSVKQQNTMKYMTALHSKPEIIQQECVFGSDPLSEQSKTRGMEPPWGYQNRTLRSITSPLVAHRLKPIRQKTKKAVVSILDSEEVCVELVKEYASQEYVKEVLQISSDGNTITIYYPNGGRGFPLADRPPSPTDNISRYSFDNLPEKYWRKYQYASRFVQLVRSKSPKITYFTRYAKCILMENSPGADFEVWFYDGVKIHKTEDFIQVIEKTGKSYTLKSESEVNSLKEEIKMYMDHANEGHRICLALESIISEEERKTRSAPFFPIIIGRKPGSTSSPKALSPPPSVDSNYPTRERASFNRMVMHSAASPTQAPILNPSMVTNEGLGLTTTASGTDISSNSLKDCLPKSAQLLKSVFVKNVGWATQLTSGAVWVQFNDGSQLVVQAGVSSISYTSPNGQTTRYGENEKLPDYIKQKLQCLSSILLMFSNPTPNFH

[2] = biological target: kinases (KINOMEscan panel) (Homo sapiens, UniProt Q7KZI7); details: MARK2; NEW KINOMEscan
[3] = biological target: kinases (KINOMEscan panel) (Homo sapiens, UniProt Q8TDX7); details: NEK7; NEW KINOMEscan
[4] = biological target: T2, kinases (KINOMEscan panel) (Homo sapiens, UniProt Q9NRP7); details: STK36; NEW KINOMEscan
T2 sequence (Q9NRP7 1-1315): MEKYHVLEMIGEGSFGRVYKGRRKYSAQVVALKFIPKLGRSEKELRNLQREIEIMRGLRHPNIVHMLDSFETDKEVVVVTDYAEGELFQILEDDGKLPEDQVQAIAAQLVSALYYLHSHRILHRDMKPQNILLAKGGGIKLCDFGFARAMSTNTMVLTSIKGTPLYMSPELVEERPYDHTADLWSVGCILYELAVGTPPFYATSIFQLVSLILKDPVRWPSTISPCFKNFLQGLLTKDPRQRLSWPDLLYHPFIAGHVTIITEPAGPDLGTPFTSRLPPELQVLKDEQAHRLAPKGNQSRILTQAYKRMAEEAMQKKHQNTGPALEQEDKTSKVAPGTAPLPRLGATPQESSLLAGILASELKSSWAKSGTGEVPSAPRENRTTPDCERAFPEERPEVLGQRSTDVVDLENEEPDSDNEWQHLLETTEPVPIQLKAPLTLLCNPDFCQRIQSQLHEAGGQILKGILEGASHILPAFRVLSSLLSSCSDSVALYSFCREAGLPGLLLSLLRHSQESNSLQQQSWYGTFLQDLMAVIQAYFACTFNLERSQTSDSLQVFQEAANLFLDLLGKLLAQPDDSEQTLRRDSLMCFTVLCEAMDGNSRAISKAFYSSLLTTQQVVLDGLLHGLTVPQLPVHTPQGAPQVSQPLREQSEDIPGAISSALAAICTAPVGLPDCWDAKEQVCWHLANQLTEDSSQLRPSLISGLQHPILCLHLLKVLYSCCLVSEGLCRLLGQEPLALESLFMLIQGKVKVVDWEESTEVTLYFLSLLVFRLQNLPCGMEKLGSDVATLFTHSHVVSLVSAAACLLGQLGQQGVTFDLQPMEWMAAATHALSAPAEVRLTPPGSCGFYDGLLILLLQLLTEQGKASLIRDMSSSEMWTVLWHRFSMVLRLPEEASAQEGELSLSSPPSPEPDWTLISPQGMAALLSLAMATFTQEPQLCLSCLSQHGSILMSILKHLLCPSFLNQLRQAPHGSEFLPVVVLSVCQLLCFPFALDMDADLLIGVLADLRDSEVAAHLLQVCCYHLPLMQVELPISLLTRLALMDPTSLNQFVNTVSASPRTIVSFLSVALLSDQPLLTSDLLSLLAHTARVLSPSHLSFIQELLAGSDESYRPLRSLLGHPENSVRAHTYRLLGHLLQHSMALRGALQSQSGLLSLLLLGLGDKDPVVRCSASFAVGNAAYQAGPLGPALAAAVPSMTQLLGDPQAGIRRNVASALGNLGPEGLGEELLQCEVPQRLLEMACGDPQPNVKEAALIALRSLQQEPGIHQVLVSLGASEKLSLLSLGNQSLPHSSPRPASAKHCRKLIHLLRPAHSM

Chain of kinases (KINOMEscan panel) (Homo sapiens, UniProt Q7KZI7) (Q7KZI7 whole entry): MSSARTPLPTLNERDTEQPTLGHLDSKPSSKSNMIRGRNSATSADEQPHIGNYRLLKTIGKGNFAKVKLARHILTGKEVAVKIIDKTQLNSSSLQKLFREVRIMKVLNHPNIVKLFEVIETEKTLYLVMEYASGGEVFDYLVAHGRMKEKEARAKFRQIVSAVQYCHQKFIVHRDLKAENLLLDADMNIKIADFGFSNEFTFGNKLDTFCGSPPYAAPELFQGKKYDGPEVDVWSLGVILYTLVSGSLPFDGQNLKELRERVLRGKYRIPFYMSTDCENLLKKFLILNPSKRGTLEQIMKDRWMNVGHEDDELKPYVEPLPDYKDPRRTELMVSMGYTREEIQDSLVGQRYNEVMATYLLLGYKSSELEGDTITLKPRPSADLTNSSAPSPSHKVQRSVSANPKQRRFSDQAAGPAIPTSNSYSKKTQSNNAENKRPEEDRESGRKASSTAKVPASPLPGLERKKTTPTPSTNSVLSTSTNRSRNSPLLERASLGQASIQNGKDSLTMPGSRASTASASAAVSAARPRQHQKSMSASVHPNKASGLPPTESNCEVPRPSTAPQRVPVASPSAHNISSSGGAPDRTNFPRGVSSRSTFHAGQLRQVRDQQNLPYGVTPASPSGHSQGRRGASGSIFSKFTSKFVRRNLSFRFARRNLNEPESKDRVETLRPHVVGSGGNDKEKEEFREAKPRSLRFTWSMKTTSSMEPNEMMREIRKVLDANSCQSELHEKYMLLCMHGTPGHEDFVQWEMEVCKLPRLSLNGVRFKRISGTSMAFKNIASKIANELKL
Chain of kinases (KINOMEscan panel) (Homo sapiens, UniProt Q8TDX7) (Q8TDX7 whole entry): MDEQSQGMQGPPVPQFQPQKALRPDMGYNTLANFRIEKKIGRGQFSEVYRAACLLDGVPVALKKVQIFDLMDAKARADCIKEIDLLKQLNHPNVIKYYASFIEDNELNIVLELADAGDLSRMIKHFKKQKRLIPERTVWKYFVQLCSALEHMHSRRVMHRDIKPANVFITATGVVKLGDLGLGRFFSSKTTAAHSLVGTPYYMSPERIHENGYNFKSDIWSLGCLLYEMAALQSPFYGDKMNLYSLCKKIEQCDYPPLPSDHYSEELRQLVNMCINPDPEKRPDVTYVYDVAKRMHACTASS

| SMILES | KINOMEscan PLK4 [1] | KINOMEscan MARK2 [2] | KINOMEscan NEK7 [3] | KINOMEscan STK36 [4] |
| --- | --- | --- | --- | --- |
| Cc1cccc(-c2nc(Nc3ccc4nn(C)cc4c3)c3ccccc3n2)n1 [NK167] | 0 | 0 | 0 | 0 |
| Cc1cccc(-c2nc(N(C)c3ccc4ncsc4c3)c3ccccc3n2)n1 [NK-161] | 3 | 0 | 0 | 7 |
